In article PMC10343686, “Integration of Hybridization Strategies in Pyridine–Urea Scaffolds for Novel Anticancer Agents: Design, Synthesis, and Mechanistic Insights” (Molecules, 2023):
“Also recorded” adds a separate entry of the source. Where two headings read alike, the source gives them in different places.

Assays:
MCF7 cancer cell line [1] = assay: SRB assay of antiproliferative activity, MCF7; format: cell-based; conditions: for GI50: Homo sapiens, MCF7, SRB assay, 48 h, mean ± standard error (n = 3)
Method: (§1) Breast cancer cell line MCF7 and colorectal carcinoma cell line HCT116 were obtained from the National Cancer Institute (MTA Number: 2702-09). Cells were cultured in complete RPMI 1640 medium (Hyclone, Logan, UT, USA) containing 10% FBS (Hyclone, Logan, UT, USA) in an atmosphere of 5% CO 2/100% humidity at 37 °C. Each investigated compound was diluted using DMSO to make a stock solution. It was treated by mixing with cell culture medium (RPMI1640 containing 10% FBS (Hyclone, Logan, UT, USA)) so that the final concentration of the drug was 0.001, 0.01, 0.1, 1, or 10 uM. There was no compound precipitated upon treatment in the culture medium.
(§2) The SRB assay was performed following the methodology of previously published studies. In brief, the cells (100 μL medium containing 5000 HCT116 or 10,000 MCF7 cells/well) were incubated in 96-well microtiter plates. After 24 h, the drug was added (100 μL) to each well and the cultures were incubated for 48 h at 37 °C. The cells were fixed in 50% TCA (50 μL per well) for 1 h at 4 °C. The liquid was removed from the plate, which was then rinsed five times with water and allowed to dry at room temperature (RT). Washed cells were stained for 10 min at RT with 0.4% SRB (100 μL per well). After staining, the plate was washed 3 times with 1% glacial acetic acid and dried at RT. The SRB stain was then solubilized in 10 mM Tris and absorbances were read at 515 nm. The effect of the drugs was expressed in terms of the GI50 (the concentration resulting in 50% maximal inhibition of cell proliferation). […]

HCT116 cancer cell line = assay: SRB assay of antiproliferative activity, HCT116; format: cell-based; conditions: Homo sapiens, HCT-116, 48 h, mean ± standard error (n = 3)
Method: as §1, §2

normal cell line HEK293 = assay: SRB assay of antiproliferative activity on normal cells; format: cell-based; conditions: HEK293, 48 h, Figure 3
Method: The antiproliferative activity of compounds 8a, 8h, and 8i was evaluated in a sulforhodamine B (SRB) assay using normal cell line HEK293 cells. Cells were treated for 48 h under the same conditions used for the assessment of the antiproliferative activity on the cancer cells.

MCF7 cancer cell line [2] = system: MCF7 cancer cell line; set-up: method as in PMID 35217379; conditions: cited from earlier work

Structure (SMILES)	GI50 (MCF7 cancer cell line [1]) [µM]	GI50 (HCT116 cancer cell line) [µM]	melting point [°C]	potency compared to the positive control drug Irinotecan (MCF7 cancer cell line [1]; MCF7 cancer cell line, ratio of GI50 values) [fold]	cell growth inhibitory effect on normal cells (normal cell line HEK293)	GI50 (MCF7 cancer cell line [2]) [µM]
O=C(Nc1ccccc1)Nc1cc(-c2ccc3cncnc3c2)ccn1 [Compound 4a, 1-Phenyl-3-(4-(quinazolin-7-yl)pyridin-2-yl)urea]	> 10	> 10	332 to 335	–	–	–
O=C(Nc1cccc(F)c1)Nc1cc(-c2ccc3cncnc3c2)ccn1 [Compound 4b, 1-(3-Fluorophenyl)-3-(4-(quinazolin-7-yl)pyridin-2-yl)urea]	> 10	> 10	–	–	–	–
O=C(Nc1ccc(F)cc1)Nc1cc(-c2ccc3cncnc3c2)ccn1 [Compound 4c, 1-(4-Fluorophenyl)-3-(4-(quinazolin-7-yl)pyridin-2-yl)urea]	> 10	> 10	–	–	–	–
COc1cccc(NC(=O)Nc2cc(-c3ccc4cncnc4c3)ccn2)c1 [Compound 4d, 1-(3-Methoxyphenyl)-3-(4-(quinazolin-7-yl)pyridin-2-yl)urea]	> 10	> 10	–	–	–	–
COc1ccc(NC(=O)Nc2cc(-c3ccc4cncnc4c3)ccn2)cc1 [Compound 4e, 1-(4-Methoxyphenyl)-3-(4-(quinazolin-7-yl)pyridin-2-yl)urea]	> 10	> 10	–	–	–	–
O=C(Nc1cccc(C(F)(F)F)c1)Nc1cc(-c2ccc3cncnc3c2)ccn1 [Compound 4f, 1-(4-(Quinazolin-7-yl)pyridin-2-yl)-3-(3-(trifluoromethyl)phenyl)urea]	> 10	> 10	328 to 331	–	–	–
O=C(Nc1cccc(OC(F)(F)F)c1)Nc1cc(-c2ccc3cncnc3c2)ccn1 [Compound 4g, 1-(4-(Quinazolin-7-yl)pyridin-2-yl)-3-(3-(trifluoromethoxy)phenyl)urea]	> 10	> 10	–	–	–	–
O=C(Nc1ccc(F)c(Cl)c1)Nc1cc(-c2ccc3cncnc3c2)ccn1 [Compound 4h, 1-(3-Chloro-4-fluorophenyl)-3-(4-(quinazolin-7-yl)pyridin-2-yl)urea]	> 10	> 10	318 to 321	–	–	–
C=CCNC(=O)Nc1cc(-c2ccc3cncnc3c2)ccn1 [Compound 4i, 1-Allyl-3-(4-(quinazolin-7-yl)pyridin-2-yl)urea]	3.35 ± 0.101	> 10	190 to 193	–	–	–
O=C(Nc1cc(-c2ccc3cncnc3c2)ccn1)NC1CCCC1 [Compound 4j, 1-Cyclopentyl-3-(4-(quinazolin-7-yl)pyridin-2-yl)urea]	> 10	> 10	223 to 226	–	–	–
O=C(NCc1ccccc1)Nc1cc(-c2ccc3cncnc3c2)ccn1 [Compound 4k, 1-Benzyl-3-(4-(quinazolin-7-yl)pyridin-2-yl)urea]	3.03 ± 0.061	> 10	221 to 224	–	–	–
O=C(NCCc1ccccc1)Nc1cc(-c2ccc3cncnc3c2)ccn1 [Compound 4l, 1-Phenethyl-3-(4-(quinazolin-7-yl)pyridin-2-yl)urea]	9 ± 0.347	> 10	260 to 263	–	–	–
O=C(NCCc1ccccc1F)Nc1cc(-c2ccc3cncnc3c2)ccn1 [Compound 4m, 1-(2-Fluorophenethyl)-3-(4-(quinazolin-7-yl)pyridin-2-yl)urea]	> 10	> 10	272 to 275	–	–	–
O=C(NCCc1ccc(F)cc1)Nc1cc(-c2ccc3cncnc3c2)ccn1 [Compound 4n, 1-(4-Fluorophenethyl)-3-(4-(quinazolin-7-yl)pyridin-2-yl)urea]	> 10	> 10	214 to 217	–	–	–
COc1n[nH]c2ccc(-c3ccnc(NC(=O)Nc4ccccc4)c3)cc12 [Compound 8a, 1-(4-(3-Methoxy-1H-indazol-5-yl)pyridin-2-yl)-3-phenylurea]	0.06 ± 0.014	1.19 ± 0.035	218 to 221	6	excellent safety profiles; also recorded: low cytotoxicity	–
COc1n[nH]c2ccc(-c3ccnc(NC(=O)Nc4cccc(F)c4)c3)cc12 [Compound 8b, 1-(3-Fluorophenyl)-3-(4-(3-methoxy-1H-indazol-5-yl)pyridin-2-yl)urea]	> 10	> 10	229 to 232	–	–	–
COc1n[nH]c2ccc(-c3ccnc(NC(=O)Nc4ccc(F)cc4)c3)cc12 [Compound 8c, 1-(4-Fluorophenyl)-3-(4-(3-methoxy-1H-indazol-5-yl)pyridin-2-yl)urea]	3.73 ± 0.075	1.22 ± 0.141	229 to 232	–	–	–
COc1cccc(NC(=O)Nc2cc(-c3ccc4[nH]nc(OC)c4c3)ccn2)c1 [Compound 8d, 1-(4-(3-Methoxy-1H-indazol-5-yl)pyridin-2-yl)-3-(3-methoxyphenyl)urea]	1.89 ± 0.26	> 10	230 to 233	–	–	–
COc1ccc(NC(=O)Nc2cc(-c3ccc4[nH]nc(OC)c4c3)ccn2)cc1 [Compound 8e, 1-(4-(3-Methoxy-1H-indazol-5-yl)pyridin-2-yl)-3-(4-methoxyphenyl)urea]	4.37 ± 0.359	> 10	240 to 242	–	–	–
COc1n[nH]c2ccc(-c3ccnc(NC(=O)Nc4ccc(F)c(Cl)c4)c3)cc12 [Compound 8f, 1-(3-Chloro-4-fluorophenyl)-3-(4-(3-methoxy-1H-indazol-5-yl)pyridin-2-yl)urea]	0.89 ± 0.209	0.92 ± 0.114	300 to 305	–	–	–
COc1n[nH]c2ccc(-c3ccnc(NC(=O)NC4CCCC4)c3)cc12 [Compound 8g, 1-Cyclopentyl-3-(4-(3-methoxy-1H-indazol-5-yl)pyridin-2-yl)urea]	1.17 ± 0.059	1.25 ± 0.037	222 to 225	–	–	–
COc1n[nH]c2ccc(-c3ccnc(NC(=O)NCc4ccccc4)c3)cc12 [Compound 8h, 1-Benzyl-3-(4-(3-methoxy-1H-indazol-5-yl)pyridin-2-yl)urea]	0.23 ± 0.015	0.33 ± 0.042	230 to 233	–	excellent safety profiles; also recorded: low cytotoxicity	–
COc1n[nH]c2ccc(-c3ccnc(NC(=O)NCCc4ccccc4)c3)cc12 [Compound 8i, 1-(4-(3-Methoxy-1H-indazol-5-yl)pyridin-2-yl)-3-phenethylurea]	0.16 ± 0.013	1.08 ± 0.006	200 to 203	–	excellent safety profiles; also recorded: low cytotoxicity	–
COc1n[nH]c2ccc(-c3ccnc(NC(=O)NCCc4ccccc4F)c3)cc12 [Compound 8j, 1-(2-Fluorophenethyl)-3-(4-(3-methoxy-1H-indazol-5-yl)pyridin-2-yl)urea]	0.75 ± 0.142	> 10	208 to 211	–	–	–
COc1n[nH]c2ccc(-c3ccnc(NC(=O)NCCc4ccc(F)cc4)c3)cc12 [Compound 8k, 1-(4-Fluorophenethyl)-3-(4-(3-methoxy-1H-indazol-5-yl)pyridin-2-yl)urea]	1.13 ± 0.003	1.38 ± 0.086	209 to 212	–	–	–
CCc1c2c(nc3ccc(OC(=O)N4CCC(N5CCCCC5)CC4)cc13)-c1cc3c(c(=O)n1C2)COC(=O)[C@]3(O)CC [Irinotecan, reference compound]	0.35 ± 0.069	0.62 ± 0.003	–	–	–	–
CNC(=O)c1cc(Oc2ccc(NC(=O)Nc3ccc(Cl)c(C(F)(F)F)c3)cc2)ccn1 [Sorafenib]	–	–	–	–	–	11.2
